Patent publication US12344610B2, “APOL1 inhibitors and methods of use” (Maze Therapeutics, Inc., priority 2022, dated 2025)

Assays:
APOL1 G2 = molecular target: T1, APOL1 G2 (Homo sapiens, UniProt O14791, DEL388-389); test: APOL1-mediated calcium transport (calcium influx) assay, HEK T-REx/GCaMP6f/APOL1 G2 K6.3 cells, FLIPR TETRA; format: cell-based; settings: prevention of calcium influx; geometric mean of at least 2 assay runs; † = average of a technical replicate from a single assay run
T1 construct: expressed in transfected cells; host or cells: HEK293 T-REx clonal line stably expressing GCaMP6f (HEK T-REx/GCaMP6f/APOL1 G2 K6.3), doxycycline induced
T1 sequence (O14791 with tags, fused parts or gaps DEL388-389): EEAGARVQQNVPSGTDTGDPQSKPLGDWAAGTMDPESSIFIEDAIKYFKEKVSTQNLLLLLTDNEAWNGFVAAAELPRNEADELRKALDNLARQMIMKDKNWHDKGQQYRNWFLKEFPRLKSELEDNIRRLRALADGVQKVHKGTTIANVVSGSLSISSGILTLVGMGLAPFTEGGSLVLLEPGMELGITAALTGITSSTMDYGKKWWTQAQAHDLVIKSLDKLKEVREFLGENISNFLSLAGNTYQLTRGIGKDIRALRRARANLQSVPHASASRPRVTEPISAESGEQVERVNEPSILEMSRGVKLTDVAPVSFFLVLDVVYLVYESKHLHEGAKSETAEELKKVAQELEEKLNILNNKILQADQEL
How it was run: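 A HEK293 T-REx clone stably expressing GCaMP6f had APOL1 G2 induced with doxycycline (20 ng/mL solution added) for 6 h. Cells were then washed into Ca2+-free Tyrode's buffer (pH 7.4) and preincubated with compounds (duplicate 8-point) for 10 min at room temperature. Ca2+ injection to 5 mM final produced FLIPR GCaMP fluorescence, giving AC50 for influx inhibition (geometric mean, ≥2 runs).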

[1] = test system: HEK293 cells overexpressing APOL1 G2; test: APOL1 G2 HEK293 cell rescue assay (reversal of cell death caused by overexpression of APOL1); format: cell-based; settings: Homo sapiens, HEK293, HEK293 overexpressing APOL1 G2; geometric mean of at least 2 assay runs; † = single assay run
How it was run: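 EC50 is the half-maximal effective concentration for reversing cell death driven by APOL1 G2 overexpression in HEK293 cells. Reported as geometric mean of at least 2 runs on separate days, each run averaging duplicate wells per plate; some values from a single run.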

| Structure (SMILES) | AC50 (APOL1 G2) | EC50 [1] |
| --- | --- | --- |
| CS(=O)(=O)C1CN(C(=O)c2ccc(OCCN3CCC4(CC3)C(=O)Nc3ccc(Cl)cc34)cc2F)C1 [Compound 233, 5-chloro-1′-{2-[3-fluoro-4-(3-methanesulfonyl-azetidine-1-carbonyl)phenoxy]ethyl}-1,2-dihydrospiro[indole-3,4′-piperidin]-2-one] | 1160 nM | 57.7 nM |
| O=C(c1ccc(OCCN2CCC3(CC2)C(=O)Nc2ccc(Cl)cc23)cc1F)N1CCC1 [Compound 234, 1′-{2-[4-(azetidine-1-carbonyl)-3-fluorophenoxy]ethyl}-5-chloro-1,2-dihydrospiro[indole-3,4′-piperidin]-2-one] | 786 nM | 80.3 nM |
| O=C(c1ccc(OCCN2CCC3(CC2)C(=O)Nc2ccc(Cl)cc23)cc1F)N1CC(O)C1 [Compound 235, 5-chloro-1′-{2-[3-fluoro-4-(3-hydroxyazetidine-1-carbonyl)phenoxy]ethyl}-1,2-dihydrospiro[indole-3,4′-piperidin]-2-one] | 1000 nM | 59.8 nM |
| NC1CN(C(=O)c2ccc(OCCN3CCC4(CC3)C(=O)Nc3ccc(Cl)cc34)cc2F)C1 [Compound 236, 1′-{2-[4-(3-aminoazetidine-1-carbonyl)-3-fluorophenoxy]ethyl}-5-chloro-1,2-dihydrospiro[indole-3,4′-piperidin]-2-one] | 634 nM | 45 nM |
| CS(=O)(=O)NC1CN(C(=O)c2ccc(OCCN3CCC4(CC3)C(=O)Nc3ccc(Cl)cc34)cc2F)C1 [Compound 237, N-{1-[4-(2-{5-chloro-2-oxo-1,2-dihydrospiro[indole-3,4′-piperidin]-1′-yl}ethoxy)-2-fluorobenzoyl]azetidin-3-yl} methanesulfonamide] | 3310 nM | 238 nM |
| N#Cc1ccc2c(c1)C1(CCN(CCOc3ccc(C(N)=O)c(F)c3)CC1)C(=O)N2 [Compound 238, 4-(2-{5-cyano-2-oxo-1,2-dihydrospiro[indole-3,4′-piperidin]-1′-yl}ethoxy)-2-fluorobenzamide] | 285 nM | 85.2 nM |
| O=C(c1ccc(OCCN2CCC3(CC2)C(=O)Nc2ccc(Cl)cc23)cc1F)N1CC2(C1)CS(=O)(=O)C2 [Compound 239, 6-[4-(2-{5-chloro-2-oxo-1,2-dihydrospiro[indole-3,4′-piperidin]-1′-yl}ethoxy)-2-fluorobenzoyl]-2λ^6-thia-6-azaspiro[3.3]heptane-2,2-dione] | 1540 nM | 77.9 nM |
| Cc1n[nH]cc1-c1ccc(OCCN2CCC3(CC2)C(=O)Nc2ccc(Cl)cc23)cc1 [Compound 244, 5-chloro-1′-{2-[4-(5-methyl-1H-pyrazol-4-yl)phenoxy]ethyl}-1,2-dihydrospiro[indole-3,4′-piperidin]-2-one] | 1060 nM | 70.4 nM |
| CNC(=O)N1CCc2cc(OCCN3CCC4(CC3)C(=O)Nc3ccc(Cl)cc34)ccc2C1 [Compound 245, 6-(2-{5-chloro-2-oxo-1,2-dihydrospiro[indole-3,4′-piperidin]-1′-yl}ethoxy)-N-methyl-1,2,3,4-tetrahydroisoquinoline-2-carboxamide] | 718 nM | 139 nM |
| Cn1c(=O)[nH]c2cc(OCCN3CCC4(CC3)C(=O)Nc3ccc(Cl)cc34)cnc21 [Compound 247, 5-chloro-1′-[2-({3-methyl-2-oxo-1H,2H,3H-imidazo[4,5-b]pyridin-6-yl}oxy)ethyl]-1,2-dihydrospiro[indole-3,4′-piperidin]-2-one] | 806 nM | 92 nM |
| O=C1Nc2ccc(Cl)cc2C12CCN(CCOc1ccc(S(=O)(=O)C3(CO)CC3)nc1)CC2 [Compound 248, 5-chloro-1′-{2-[(6-{[1-(hydroxymethyl)cyclopropyl]sulfonyl}pyridin-3-yl)oxy]ethyl}-1,2-dihydrospiro[indole-3,4′-piperidin]-2-one] | 820 nM | 58.4 nM |
| NC(=O)c1ccc(OCCN2CCC3(CC2)C(=O)Nc2ccc(Cl)cc23)cc1C(F)F [Compound 249, 4-(2-{5-chloro-2-oxo-1,2-dihydrospiro[indole-3,4′-piperidin]-1′-yl}ethoxy)-2-(difluoromethyl)benzamide] | 433 nM | 26.8 nM |
| N#Cc1ccc2c(c1)C1(CCN(CCOc3ccc(C(N)=O)c(C(F)F)c3)CC1)C(=O)N2 [Compound 250, 4-(2-{5-cyano-2-oxo-1,2-dihydrospiro[indole-3,4′-piperidin]-1′-yl}ethoxy)-2-(difluoromethyl)benzamide] | 559 nM | 49.2 nM |
| CN1C(=O)C2(CCN(CCOc3ccc(C4(S(C)(=O)=O)COC4)cc3)CC2)c2cc(C#N)ccc21 [Compound 251, 1′-{2-[4-(3-methanesulfonyloxetan-3-yl)phenoxy]ethyl}-1-methyl-2-oxo-1,2-dihydrospiro[indole-3,4′-piperidine]-5-carbonitrile] | 546 nM | 125 nM |
| CN(C)C(=O)C1(c2ccc(OCCN3CCC4(CC3)C(=O)Nc3ccc(C#N)cc34)cc2)COC1 [Compound 254, 3-[4-(2-{5-cyano-2-oxo-1,2-dihydrospiro[indole-3,4′-piperidin]-1′-yl}ethoxy)phenyl]-N,N-dimethyloxetane-3-carboxamide] | 898 nM | 175 nM |
| CNC(=O)C1(c2ccc(OCCN3CCC4(CC3)C(=O)Nc3ccc(C#N)cc34)cc2)COC1 [Compound 255, 3-[4-(2-{5-cyano-2-oxo-1,2-dihydrospiro[indole-3,4′-piperidin]-1′-yl}ethoxy)phenyl]-N-methyloxetane-3-carboxamide] | 2640 nM | 353 nM |
| O=C(c1c(F)cc(OCCN2CCC3(CC2)C(=O)Nc2ccc(Cl)cc23)cc1F)N1CCS(=O)(=O)CC1 [Compound 259, 4-[4-(2-{5-chloro-2-oxo-1,2-dihydrospiro[indole-3,4′-piperidin]-1′-yl}ethoxy)-2,6-difluorobenzoyl]-1λ^6-thiomorpholine-1,1-dione] | 651 nM | 37.5 nM |
| CN1C(=O)C2(CCN(CCOc3cc(F)c(C(=O)N4CCS(=O)(=O)CC4)c(F)c3)CC2)c2cc(C#N)ccc21 [Compound 260, 1′-{2-[4-(1,1-dioxo-1λ^6-thiomorpholine-4-carbonyl)-3,5-difluorophenoxy]ethyl}-1-methyl-2-oxo-1,2-dihydrospiro[indole-3,4′-piperidine]-5-carbonitrile] | 1380 nM | 119 nM |
| CN1C(=O)C2(CCN(CCOc3ccc(C(=O)N4CCS(=O)(=O)CC4)c(C(F)(F)F)c3)CC2)c2cc(C#N)ccc21 [Compound 261, 1′-{2-[4-(1,1-dioxo-1λ^6-thiomorpholine-4-carbonyl)-3-(trifluoromethyl)phenoxy]ethyl}-1-methyl-2-oxo-1,2-dihydrospiro[indole-3,4′-piperidine]-5-carbonitrile] | 1460 nM | 89 nM |
| CS(=O)(=O)c1ccc(OCCN2CCC3(CC2)C(=O)N(CCO)c2ccc(Cl)cc23)cc1C(F)F [Compound 265, 5-chloro-1′-{2-[3-(difluoromethyl)-4-methanesulfonylphenoxy]ethyl}-1-(2-hydroxyethyl)-1,2-dihydrospiro[indole-3,4′-piperidin]-2-one] | 697 nM | 30 nM |
| CS(=O)(=O)c1ccc(OCCN2CCC3(CC2)C(=O)N(CCO)c2ccc(C#N)cc23)cc1C(F)F [Compound 266, 1′-{2-[3-(difluoromethyl)-4-methanesulfonylphenoxy]ethyl}-1-(2-hydroxyethyl)-2-oxo-1,2-dihydrospiro[indole-3,4′-piperidine]-5-carbonitrile] | 862 nM | 104 nM |
| O=C(c1ccc(OCCN2CCC3(CC2)C(=O)Nc2ccc(Cl)cc23)cc1C(F)(F)F)N1CCS(=O)(=O)CC1 [Compound 272, 4-[4-(2-{5-chloro-2-oxo-1,2-dihydrospiro[indole-3,4′-piperidin]-1′-yl}ethoxy)-2-(trifluoromethyl)benzoyl]-1λ^6-thiomorpholine-1,1-dione] | 921 nM | 93.4 nM |
| CS(=O)(=O)N1CC2(CN(C(=O)c3ccc(OCCN4CCC5(CC4)C(=O)Nc4ccc(Cl)cc45)cc3F)C2)C1 [Compound 273, 5-chloro-1′-[2-(3-fluoro-4-{6-methanesulfonyl-2,6-diazaspiro[3.3]heptane-2-carbonyl}phenoxy)ethyl]-1,2-dihydrospiro[indole-3,4′-piperidin]-2-one] | 2100 nM | 88.5 nM |
| C[C@]1(O)C[C@@H](N2C(=O)CCc3cc(OCCN4CCC5(CC4)C(=O)Nc4ccc(C(F)F)cc45)cnc32)C1 [Compound 274, 5-(difluoromethyl)-1′-[2-({7-oxo-8-[(cis)-3-hydroxy-3-methylcyclobutyl]-5,6,7,8-tetrahydro-1,8-naphthyridin-3-yl}oxy)ethyl]-1,2-dihydrospiro[indole-3,4′-piperidin]-2-one] | 722 nM | 34 nM |
